Several values for one entry are separate records, joined by “and”; a condition that tells them apart may be missing. Equal values may be shown once.
What was measured:
SF-295 = experiment: NCI single dose (10 µM) SRB screen; format: cell-based, human; details: CNS cancer, 48 h
M14 = experiment: NCI single dose (10 µM) SRB screen; format: cell-based, human; details: melanoma, 48 h
SNB-75 = experiment: NCI single dose (10 µM) SRB screen; format: cell-based, human; details: CNS cancer, 48 h
HOP-92 = experiment: NCI single dose (10 µM) SRB screen; format: cell-based, human; details: non-small cell lung cancer, 48 h
HCC-2998 = experiment: NCI single dose (10 µM) SRB screen; format: cell-based, human; details: colon cancer, 48 h
MDA-MB-435 = experiment: NCI single dose (10 µM) SRB screen; format: cell-based, human; details: melanoma, 48 h
SF-268 = experiment: NCI single dose (10 µM) SRB screen; format: cell-based, human; details: CNS cancer, 48 h
SR = experiment: NCI single dose (10 µM) SRB screen; format: cell-based, human; details: leukaemia, 48 h
UACC-62 = experiment: NCI single dose (10 µM) SRB screen; format: cell-based, human; details: melanoma, 48 h
PC-3 = experiment: NCI single dose (10 µM) SRB screen; format: cell-based, human; details: prostate cancer, 48 h
786-0 = experiment: NCI single dose (10 µM) SRB screen; format: cell-based, human; details: renal cancer, 48 h
SNB-19 = experiment: NCI single dose (10 µM) SRB screen; format: cell-based, human; details: CNS cancer, 48 h
MOLT-4 = experiment: NCI single dose (10 µM) SRB screen; format: cell-based, human; details: leukaemia, 48 h
BT-549 = experiment: NCI single dose (10 µM) SRB screen; format: cell-based, human; details: breast cancer, 48 h
SK-OV-3 = experiment: NCI single dose (10 µM) SRB screen; format: cell-based, human; details: ovarian cancer, 48 h
SK-MEL-28 = experiment: NCI single dose (10 µM) SRB screen; format: cell-based, human; details: melanoma, 48 h
EKVX = experiment: NCI single dose (10 µM) SRB screen; format: cell-based, human; details: non-small cell lung cancer, 48 h
SN12C = experiment: NCI single dose (10 µM) SRB screen; format: cell-based, human; details: renal cancer, 48 h
UO-31 = experiment: NCI single dose (10 µM) SRB screen; format: cell-based, human; details: renal cancer, 48 h
HCT-116 = experiment: NCI single dose (10 µM) SRB screen; format: cell-based, human; details: colon cancer, 48 h
NCI-H322M = experiment: NCI single dose (10 µM) SRB screen; format: cell-based; details: non-small cell lung cancer, 48 h
MDA-MB-468 = experiment: NCI single dose (10 µM) SRB screen; format: cell-based, human; details: breast cancer, 48 h
K-562 = experiment: NCI single dose (10 µM) SRB screen; format: cell-based, human; details: leukaemia, 48 h
NCI-H23 = experiment: NCI single dose (10 µM) SRB screen; format: cell-based, human; details: non-small cell lung cancer, 48 h
CCRF-CEM = experiment: NCI single dose (10 µM) SRB screen; format: cell-based, human; details: leukaemia, 48 h
DU-145 = experiment: NCI single dose (10 µM) SRB screen; format: cell-based, human; details: prostate cancer, 48 h
Staphylococcus aureus = experiment: Agar well diffusion method; details: for zone of inhibition at 1000 µg/mL: Staphylococcus aureus, 24 h, read-out: Diameter of inhibition zone, S. aureus; for % activity index, S. aureus: relative to ciprofloxacin
HOP-62 = experiment: NCI single dose (10 µM) SRB screen; format: cell-based, human; details: non-small cell lung cancer, 48 h
MALME-3M = experiment: NCI single dose (10 µM) SRB screen; format: cell-based, human; details: melanoma, 48 h
NCI-H460 = experiment: NCI single dose (10 µM) SRB screen; format: cell-based, human; details: non-small cell lung cancer, 48 h
U251 = experiment: NCI single dose (10 µM) SRB screen; format: cell-based, human; details: CNS cancer, 48 h
RXF 393 = experiment: NCI single dose (10 µM) SRB screen; format: cell-based, human; details: renal cancer, 48 h
RPMI-8226 = experiment: NCI single dose (10 µM) SRB screen; format: cell-based, human; details: leukaemia, 48 h
SW-620 = experiment: NCI single dose (10 µM) SRB screen; format: cell-based, human; details: colon cancer, 48 h
Bacillus subtilis = experiment: Agar well diffusion method; details: for zone of inhibition at 1000 µg/mL: Bacillus subtilis, 24 h, read-out: Diameter of inhibition zone, B. subtilis; for % activity index, B. subtilis: relative to ciprofloxacin
LOX IMVI = experiment: NCI single dose (10 µM) SRB screen; format: cell-based, human; details: melanoma, 48 h
HL-60(TB) = experiment: NCI single dose (10 µM) SRB screen; format: cell-based, human; details: leukaemia, 48 h
MDA-MB-231 = experiment: NCI single dose (10 µM) SRB screen; format: cell-based, human; details: breast cancer, 48 h
OVCAR-8 = experiment: NCI single dose (10 µM) SRB screen; format: cell-based, human; details: ovarian cancer, 48 h
MCF7 = experiment: NCI single dose (10 µM) SRB screen; format: cell-based, human; details: breast cancer, 48 h
NCI-H522 = experiment: NCI single dose (10 µM) SRB screen; format: cell-based, human; details: non-small cell lung cancer, 48 h
T-47D = experiment: NCI single dose (10 µM) SRB screen; format: cell-based, human; details: breast cancer, 48 h
COLO 205 = experiment: NCI single dose (10 µM) SRB screen; format: cell-based, human; details: colon cancer, 48 h
Pseudomonas aeruginosa = experiment: Agar well diffusion method; details: for zone of inhibition at 1000 µg/mL: Pseudomonas aeruginosa, 24 h, read-out: Diameter of inhibition zone, P. aeruginosa; for % activity index, P. aeruginosa: relative to ciprofloxacin
OVCAR-4 = experiment: NCI single dose (10 µM) SRB screen; format: cell-based, human; details: ovarian cancer, 48 h
NCI 60 cancer cell lines = experiment: NCI single dose (10 µM) SRB screen, mean over panel; format: cell-based, human; details: mean over 60 cell lines, 48 h
UACC-257 = experiment: NCI single dose (10 µM) SRB screen; format: cell-based, human; details: melanoma, 48 h
OVCAR-3 = experiment: NCI single dose (10 µM) SRB screen; format: cell-based, human; details: ovarian cancer, 48 h
SF-539 = experiment: NCI single dose (10 µM) SRB screen; format: cell-based, human; details: CNS cancer, 48 h
A549/ATCC = experiment: NCI single dose (10 µM) SRB screen; format: cell-based, human; details: non-small cell lung cancer, 48 h
HCT-15 = experiment: NCI single dose (10 µM) SRB screen; format: cell-based, human; details: colon cancer, 48 h
NCI/ADR-RES = experiment: NCI single dose (10 µM) SRB screen; format: cell-based, human; details: ovarian cancer, 48 h
A498 = experiment: NCI single dose (10 µM) SRB screen; format: cell-based, human; details: renal cancer, 48 h

CCOC(=O)C1=C(C)NC(C)=C(C(=O)OC)C1c1cccc(C#N)c1 (racemic) [Compound 2g, (±)-3-Ethyl 5-methyl 4-(3-cyanophenyl)-2,6-dimethyl-1,4-dihydropyridine-3,5-dicarboxylate]
– (Only GI% ≥ 10 are shown): GI% SF-295 (SF-295) | GI% M14 (M14) | GI% SNB-75 (SNB-75) | GI% HOP-92 (HOP-92) | GI% HCC-2998 (HCC-2998) | GI% MDA-MB-435 (MDA-MB-435) | GI% SF-268 (SF-268) | GI% UACC-62 (UACC-62) | GI% PC-3 (PC-3) | GI% 786-0 (786-0) | GI% SNB-19 (SNB-19) | GI% MOLT-4 (MOLT-4) | GI% BT-549 (BT-549) | GI% SK-OV-3 (SK-OV-3) | GI% SK-MEL-28 (SK-MEL-28) | GI% EKVX (EKVX) | GI% SN12C (SN12C) | GI% UO-31 (UO-31) | GI% HCT-116 (HCT-116) | GI% NCI-H322M (NCI-H322M) | GI% MDA-MB-468 (MDA-MB-468) | GI% K-562 (K-562) | GI% NCI-H23 (NCI-H23) | GI% CCRF-CEM (CCRF-CEM) | GI% DU-145 (DU-145) | GI% HOP-62 (HOP-62) | GI% MALME-3M (MALME-3M) | GI% NCI-H460 (NCI-H460) | GI% U251 (U251) | GI% RXF 393 (RXF 393) | GI% RPMI-8226 (RPMI-8226) | GI% SW-620 (SW-620) | GI% LOX IMVI (LOX IMVI) | GI% HL-60(TB) (HL-60(TB)) | GI% MDA-MB-231 (MDA-MB-231) | GI% OVCAR-8 (OVCAR-8) | GI% NCI-H522 (NCI-H522) | GI% T-47D (T-47D) | GI% COLO 205 (COLO 205) | GI% OVCAR-4 (OVCAR-4) | GI% UACC-257 (UACC-257) | GI% OVCAR-3 (OVCAR-3) | GI% SF-539 (SF-539) | GI% A549/ATCC (A549/ATCC) | GI% HCT-15 (HCT-15) | GI% NCI/ADR-RES (NCI/ADR-RES) | GI% A498 (A498)
21 mm: zone of inhibition at 1000 µg/mL (Pseudomonas aeruginosa)
14%: GI% SR (SR)
19 mm: zone of inhibition at 1000 µg/mL (Bacillus subtilis)
82% and 82.6%: % activity index, B. subtilis (Bacillus subtilis)
91% and 91.3%: % activity index, P. aeruginosa (Pseudomonas aeruginosa)
11%: GI% MCF7 (MCF7)
91% and 91.7%: % activity index, S. aureus (Staphylococcus aureus)
−1%: Mean GI% (NCI 60 cancer cell lines)
22 mm: zone of inhibition at 1000 µg/mL (Staphylococcus aureus)

CCOC(=O)C1=C(C)NC(C)=C(C(=O)OC(C)C)C1c1cccc(C#N)c1 (racemic) [Compound 2h, (±)-3-Ethyl 5-isopropyl 4-(3-cyanophenyl)-2,6-dimethyl-1,4-dihydropyridine-3,5-dicarboxylate]
– (Only GI% ≥ 10 are shown): GI% SF-295 (SF-295) | GI% M14 (M14) | GI% HOP-92 (HOP-92) | GI% HCC-2998 (HCC-2998) | GI% MDA-MB-435 (MDA-MB-435) | GI% SF-268 (SF-268) | GI% SR (SR) | GI% UACC-62 (UACC-62) | GI% 786-0 (786-0) | GI% SNB-19 (SNB-19) | GI% BT-549 (BT-549) | GI% SK-OV-3 (SK-OV-3) | GI% SK-MEL-28 (SK-MEL-28) | GI% EKVX (EKVX) | GI% SN12C (SN12C) | GI% UO-31 (UO-31) | GI% HCT-116 (HCT-116) | GI% NCI-H322M (NCI-H322M) | GI% K-562 (K-562) | GI% NCI-H23 (NCI-H23) | GI% CCRF-CEM (CCRF-CEM) | GI% DU-145 (DU-145) | GI% HOP-62 (HOP-62) | GI% MALME-3M (MALME-3M) | GI% NCI-H460 (NCI-H460) | GI% U251 (U251) | GI% RXF 393 (RXF 393) | GI% RPMI-8226 (RPMI-8226) | GI% SW-620 (SW-620) | GI% LOX IMVI (LOX IMVI) | GI% HL-60(TB) (HL-60(TB)) | GI% MDA-MB-231 (MDA-MB-231) | GI% OVCAR-8 (OVCAR-8) | GI% MCF7 (MCF7) | GI% NCI-H522 (NCI-H522) | GI% T-47D (T-47D) | GI% COLO 205 (COLO 205) | GI% OVCAR-4 (OVCAR-4) | GI% UACC-257 (UACC-257) | GI% OVCAR-3 (OVCAR-3) | GI% SF-539 (SF-539) | GI% A549/ATCC (A549/ATCC) | GI% HCT-15 (HCT-15) | GI% NCI/ADR-RES (NCI/ADR-RES)
10 mm: zone of inhibition at 1000 µg/mL (Pseudomonas aeruginosa)
11 mm: zone of inhibition at 1000 µg/mL (Staphylococcus aureus)
20%: GI% MDA-MB-468 (MDA-MB-468)
45.8%: % activity index, S. aureus (Staphylococcus aureus)
34.8%: % activity index, B. subtilis (Bacillus subtilis)
15%: GI% SNB-75 (SNB-75)
43.5%: % activity index, P. aeruginosa (Pseudomonas aeruginosa)
0%: Mean GI% (NCI 60 cancer cell lines)
16%: GI% A498 (A498)
8 mm: zone of inhibition at 1000 µg/mL (Bacillus subtilis)
11%: GI% MOLT-4 (MOLT-4)
12%: GI% PC-3 (PC-3)

Reference: publication PMC9481151, “Discovery of new symmetrical and asymmetrical nitrile-containing 1,4-dihydropyridine derivatives as dual kinases and P-glycoprotein inhibitors: synthesis, in vitro assays, and in silico studies” (Journal of Enzyme Inhibition and Medicinal Chemistry, 2022)
